Measurements: ChEMBL document CHEMBL1129772, “Synthesis and radical scavenging activity of 3,3-dialkyl-3,4-dihydro-isoquinoline 2-oxides” (Bioorg Med Chem Lett, 1996)

Test system: Liposome
Test: In vitro inhibition of peroxyl radical-dependent oxidation of liposomes from soybean phosphatidylcholine by ethanol injection.
Assay type: functional, Glycine max

| Compound | IC50 [µM] |
| --- | --- |
| CC1(C)Cc2cc(Cl)cc(Cl)c2C=[N+]1[O-] | 18 |
| [O-][N+]1=Cc2ccccc2CC12CCCCC2 | 8 |
| COc1ccc2c(c1)C=[N+]([O-])C(C)(C)C2 | 67 |
| CC1(C)Cc2ccccc2C=[N+]1[O-] | 200 |
| COc1cc2c(cc1OC)CC(C)(C)[N+]([O-])=C2 | 130 |
| CC1(C)Cc2cc(F)ccc2C=[N+]1[O-] | 160 |
| [O-][N+]1=Cc2ccccc2CC12CCCC2 | 21 |
| CC1(C)Cc2c(Cl)cccc2C=[N+]1[O-] | 24 |
| COc1ccc2c(c1)CC1(CCCCC1)[N+]([O-])=C2 | 11 |
| CC(C)(C)/[N+]([O-])=C/c1ccccc1 | 2170 |
| COc1cccc2c1C=[N+]([O-])C1(CCCCC1)C2 | 38 |
| CC1(C)Cc2cc(Cl)ccc2C=[N+]1[O-] | 55 |
| CC1(C)Cc2cccc(Cl)c2C=[N+]1[O-] | 45 |
| CC1(C)Cc2ccc(Cl)cc2C=[N+]1[O-] | 41 |
| CC1(C)Cc2ccc(F)cc2C=[N+]1[O-] | 67 |
| COc1ccc2c(c1)CC(C)(C)[N+]([O-])=C2 | 69 |
| [O-][N+]1=Cc2cc(Cl)ccc2CC12CCCCC2 | 3 |
| COc1ccc(F)c2c1CC(C)(C)[N+]([O-])=C2 | 56 |
